Experimental data as given in US20130195926A1, “MODULATION OF NITRIC OXIDE SIGNALING TO NORMALIZE TUMOR VASCULATURE” (The General Hospital Corporation, priority 2007, published 2013).

Legend:
nNOS = assay: Western blot of nNOS knockdown in cultured nNOS shRNA-transfected U87 cells; assay type: cell-based, human
Procedure: U87MG (American Type Culture Collection HTB-14) and GL261 (generous gift from Dr. G. Yancey Gillespie at University of Alabama) tumor cells were cultured in Dulbecco's Modified Eagle's Medium with 10% fetal bovine serum at 37° C. in a humidified 5% CO2 incubator. The following short-hairpin RNAs (shRNAs) for nNOS were designed using a commercial service program for small interfering RNA (siRNA) target finder (http://www.ambion.com/techlib/misc/siRNA_finder.html): nNOS-shRNA58, CAAAGAGATCGACACCATC (sense), […] (antisense); nNOSshRNA97, CACGCATGTCTGGAAAGGC (sense), […](antisense); nNOS-shRNA150, GGTCTATCCAATGTCCACA (sense), […] (antisense). The DNA oligonucleotides consist of a 19-nucleotide sense siRNA sequence linked to its reverse complementary antisense siRNA sequence by a short spacer (TTCAAGAGA).
Each DNA oligonucleotide was prepared with nucleotide overhangs with BamHI and HindIII restriction sites added to the 5′ and 3′ end of the DNA oligonucleotides and subcloned into the pSilencer 3.1 H-1-hygro (Ambion) that allows transcription of the shRNA. These expression vectors were stably transfected into U87MG cells using LipofectAMINE 2000 (Invitrogen) following the manufacturer's instruction.
The stably transfected cells were selected with 80 μg/ml of hygromycin B. The expression of nNOS protein in U87 tumor cells and tissues was determined by'Western blot analysis. […]
Equal amounts of 60 micrograms of protein per sample were separated on 7.5% SDS polyacrylamide gels, transferred onto polyvinylidene fluoride membrane (Millipore), incubated with primary antibodies followed by secondary antibodies (the same antibodies used in immunohistochemistry studies. See Immunohistochemistry methods below), and detected using enhanced chemiluminescence (GE Healthcare) by exposure on autoradiography films (Kodak) (Xu, L., et al. 2005 Cancer Res. 65, 5711-5719; Canneliet, P., et al. 1998 Nature 394, 485-490; Xu, L., et al. 2002 Journal of Biological Chemistry 277, 11368-11374 (2002); and Xu, L., et al. 2004 Clinical Cancer Research 10, 701-707). […]

U87 tumors = assay: Fractionated radiation therapy of U87 tumors grown in the hind leg; assay type: in vivo, mice; conditions: 3 daily fractions of 8 Gy, compared to irradiated U87MG tumor bearing animals
Procedure: When tumors grown in the hindleg reached about 100 mm^3, animals were randomly assigned to radiation or control group (day 0). In the radiation groups, tumors were locally irradiated with three daily fractions, 8 Gy each, using a ^137Cs gamma irradiator (Hranitzky, E. B., et al. 1973 Radiology 107, 641-644) at a dose rate of approximately 5 Gy/min. The details of irradiation are described elsewhere (Kozin, S. V., et al. 2001 Cancer Research 61, 39-44). Tumor size was measured with a caliper at least every other day. The time taken for tumor to increase in volume 2×, 3×, 4×, 5×, 6×, and 7× of the initial volume (V0) was determined. Tumor growth delay was calculated as the difference of this parameter between irradiated tumors and nonradiated control tumors of the same genotype. Mice were euthanized when the tumors reached 12 mm in diameter. Survival time of individual animals (spontaneous death or by euthanasia at maximum tumor size) was determined after the start of radiation/control treatment.
The effect of radiation treatment on U87MG, U87-shRNA58 and U87-shRNA150 tumors was determined. Tumors were grown subcutaneously in the hind leg of Rag-1^−/− mice. When tumors reached ˜100 mm^3, they were randomly assigned to control and radiation treatment groups. […] Tumor growth and overall animal survival were monitored. […]

Substance | Knockdown efficiency of nNOS in vitro (nNOS) [%] | animal survival after radiation treatment (U87 tumors)
shRNA150: short-hairpin RNA for nNOS, GGTCTATCCAATGTCCACA (sense), TGTGGACATTGGATAGACCTT (antisense), in pSilencer 3.1 H-1-hygro | 99 | Significant extension
shRNA58: short-hairpin RNA for nNOS, CAAAGAGATCGACACCATC (sense), GATGGTGTCGATCTCTTTGTT (antisense), in pSilencer 3.1 H-1-hygro, stably transfected into U87MG | 99 | Significant extension
